How the values were obtained:
[1] = test system: CPG-ds27 (DNA, hairpin) CGCGAATTCGCGTTTCGCGAATTCGCG; test: G4-CPG affinity chromatography, UV; conditions: 50 mM KCl; 10% DMSO, 10% ethanol; 60 µM compound loaded; error ±2%
[2] = test system: CPG-c-myc (DNA, G4) TGGGGAGGGTGGGGAGGGTGGGGAAGGTGGGGA; test: G4-CPG affinity chromatography, UV; conditions: 50 mM KCl; 10% DMSO, 10% ethanol; 60 µM compound loaded; error ±2%
[3] = test system: pu22 (DNA, G4) TGAGGGTGGGTAGGGTGGGTAA; test: CD melting, 263 nm; conditions: no metal cations, 10 mM Tris-HCl, pH 7, 2 µM DNA, 4 µM compound (2 equiv), free Tm 27 °C
[4] = test system: CPG-tel26 (DNA, G4) TTAGGGTTAGGGTTAGGGTTAGGGTT; test: G4-CPG affinity chromatography, UV; conditions: 50 mM KCl; 10% DMSO, 10% ethanol; 60 µM compound loaded; error ±2%
[5] = test system: tel26 (DNA, G4) TTAGGGTTAGGGTTAGGGTTAGGGTT; test: CD melting, 290 nm; conditions: 20 mM KCl, 5 mM potassium phosphate, pH 7, 2 µM DNA, 4 µM compound (2 equiv), free Tm 43 °C
[6] = test system: ds12 (DNA, duplex) CGCGAATTCGCG; test: CD melting, 253 nm; conditions: 20 mM KCl, 5 mM potassium phosphate; pH 7; 2 µM DNA; 4 µM compound (2 equiv); free Tm 65 °C
[7] = test system: ds12 (DNA, duplex) CGCGAATTCGCG; test: CD titration; conditions: 20 mM KCl, 5 mM potassium phosphate; pH 7, 20 °C; 2 µM DNA; up to 4 µM compound; no relevant CD effect

Structure (SMILES) | Bound ligand (%) [1] [%] | Bound ligand (%) [2] [%] | ΔTm [3] | Bound ligand (%) [4] [%] | ΔTm ([5]; switch to parallel fold) | ΔTm [6] | ΔTm [5] | binding [7] | ΔTm ([3]; two transitions)
C[n+]1ccc(C#Cc2cnc3n4ccnc4n4c(C#Cc5cc[n+](C)cc5)cnc4n23)cc1 | 40 | 100 | +45 °C | 79 | – | – | – | – | –
C[n+]1ccccc1C#Cc1cnc2n3ccnc3n3c(C#Cc4cccc[n+]4C)cnc3n12 | 39 | 84 | – | 74 | – | – | – | – | –
C[n+]1ccc(C#Cc2cnc3n2c2ncc(C#Cc4cc[n+](C)cc4)n2c2ncc(C#Cc4cc[n+](C)cc4)n32)cc1 | 50 | 90 | – | 75 | +23 °C | +15 °C | – | – | –
C[n+]1ccccc1C#Cc1cnc2n3ccnc3n3ccnc3n12 | 10 | 85 | – | 72 | – | −2 °C | +3 °C | no | –
C[n+]1ccccc1C#Cc1cnc2n1c1ncc(C#Cc3cccc[n+]3C)n1c1ncc(C#Cc3cccc[n+]3C)n21 | 56 | 99 | – | 89 | +22 °C | +15 °C | – | – | +16/ + 63 °C
C[n+]1ccc(C#Cc2cnc3n4ccnc4n4ccnc4n23)cc1 | 15 | 88 | +8 °C | 66 | – | – | – | no | –
